Experiments:
[1] = target: T1, IL-17A with IL-17RA/IL-17RC receptor (HEK-Blue IL-17 reporter cells) (Homo sapiens, UniProt Q16552); experiment: SEAP reporter assay in HEK-Blue IL-17 cells, QUANTI-Blue […] nm; format: cell-based; details: IL-17A-stimulated cells, 37 °C overnight, 1 nM to 100 μM, four-parameter fit; indirect downstream reporter read-out (NF-kB/AP-1), binding site not shown experimentally
T1 construct: gene IL17A; IL-17A ligand supplied by the manufacturer, added to HEK 293 cells stably transfected with IL-17RA/IL-17RC heterodimeric receptor and Act1 adaptor; SEAP reporter (NF-kB/AP-1); with Interleukin-17 receptor A; Interleukin-17 receptor C

[2] = target: IL-17RA/IL-17RC heterodimeric receptor (UniProt Q96F46)

Chain of IL-17A (Q16552 24-155): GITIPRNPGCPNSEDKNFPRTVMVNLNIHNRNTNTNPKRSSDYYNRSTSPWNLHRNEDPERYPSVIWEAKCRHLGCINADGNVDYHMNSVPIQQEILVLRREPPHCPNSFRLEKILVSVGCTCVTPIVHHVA

Compound | IC50 [1] [µM] | SEAP release of HEK-Blue IL-17 reporter cells (QUANTI-Blue, 630 nm) with IL-17A; percent inhibition by the small molecule Niraparib, 1 nM to 100 uM (22% at 1 uM, 51% at 10 uM, 99.3% at 100 uM) [2] [%]
NC(=O)c1cccc2cn(-c3ccc([C@@H]4CCCNC4)cc3)nc12 [Niraparib] | 70 | –
IL-17A (from UniProt Q16552 24-155) (ligand) | – | 99.3

From publication PMC12498388, “Niraparib Demonstrates Therapeutic Potential in Multiple Sclerosis through Inhibition of IL-17A Receptor Interaction and Promotion of Remyelination” (ACS Chemical Neuroscience, 2025)
